Holding throughout (format): cell-based
In data set [1] the test system is human Factor 11 mRNA. Put plainly: Dose-dependent inhibition of human Factor 11 in HepG2 cells, lipofectin 9.375-75 nM (Example 4). As to conditions: for percent inhibition of Factor 11 at 9.375 nM / percent inhibition of Factor 11 at 18.75 nM / percent inhibition of Factor 11 at 37.5 nM / percent inhibition of Factor 11 at 75 nM: relative to untreated control cells. How it is done: (§1) Cells were plated at a density of 10,000 cells per well and transfected using lipofectin reagent with 9.375 nM, 18.75 nM, 37.5 nM and 75 nM concentrations of antisense oligonucleotide, as specified in Table 9. After a treatment period of approximately 16 hours, RNA was isolated from the cells and Factor 11 mRNA levels were measured by quantitative real-time PCR. Human Factor 11 primer probe set RTS 2966 was used to measure mRNA levels. Factor 11 mRNA levels were adjusted according to total RNA content, as measured by RIBOGREEN. Results are presented as percent inhibition of Factor 11, relative to untreated control cells.

Data set [2] relates to human Factor 11 mRNA. Put plainly: Antisense inhibition of human Factor 11 in HepG2 cells by microwalk gapmers, lipofectin, 75 nM (Example 3). In short, it runs like this: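 HepG2 cells (10,000/well) were transfected via lipofectin with 75 nM 20-mer MOE gapmers (phosphorothioate, 5-methyl-C) for about 24 h. Factor 11 mRNA was measured by qRT-PCR, normalized to RIBOGREEN total RNA, and given as percent inhibition versus untreated cells.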

Data set [3] relates to human Factor 11 mRNA. Put plainly: Dose-dependent inhibition of human Factor 11 in HepG2 cells, electroporation 0.7-20 uM (Example 4). As to conditions: for percent inhibition of Factor 11 at 0.7 μM / percent inhibition of Factor 11 at 2.2 μM / percent inhibition of Factor 11 at 6.7 μM / percent inhibition of Factor 11 at 20 μM: relative to untreated control cells. How it is done: as §1, with “The gapmers were also transfected via electroporation and their dose dependent inhibition of human Factor 11 mRNA was measured. Cells” for “Cells”, “20,000” for “10,000”, “via electroporation” for “using lipofectin reagent”, “0.7 μM, 2.2 μM, 6.7 μM,” for “9.375 nM, 18.75 nM, 37.5 nM”, “20 μM” for “75 nM”, “10.” for “9.”

Where [4] appears, read: HepG2, lipofectin, ~24 h, gapmers targeted to nucleobases 656 to 704 of SEQ ID NO: 1.

pIC50: −log10 of the molar value. Strand notation (5' to 3'): a small letter for the sugar, then the base; units joined by * are phosphorothioate-linked, units joined directly phosphodiester-linked; [ ] holds rarer units or linkages, { } end groups; capitals alone tell only the bases. e = 2'-O-(2-methoxyethyl) (MOE); [5mC] = 5-methylcytosine; d = 2'-deoxy (DNA)

For orientation: pIC50 means −log10 of the IC50, conventionally taken in molar units. A low value points to a high IC50. As usually defined, the % inhibition is how much of the control response was suppressed. Low values mean little suppression, high ones strong suppression. For “416896 (antisense eT*eT*eA*dT*dG*d[5mC]*d[5mC]*d[5mC]*dT*dT*d[5mC]*dA*dT*dG*dT*d[5mC]*dT*eA*eG*eG) [compound 416896]”, in the data set with human Factor 11 mRNA [1], the pIC50 is 7.57, the “percent inhibition of Factor 11 at 9.375 nM” value is listed as 22%, the “percent inhibition of Factor 11 at 18.75 nM” value worked out at 39% and the “percent inhibition of Factor 11 at 37.5 nM” value came out at 57%. In the data set on human Factor 11 mRNA [1], the “percent inhibition of Factor 11 at 75 nM” value amounted to 81%. Also, in the data set on human Factor 11 mRNA [2] (setting [4]), the “% inhibition” value is on record as 95%. Besides, in the data set on human Factor 11 mRNA [3], the negative-log IC50 (pIC50) was 5.49, the “percent inhibition of Factor 11 at 0.7 μM” value was found to be 12%, the “percent inhibition of Factor 11 at 2.2 μM” value worked out at 35% and the “percent inhibition of Factor 11 at 6.7 μM” value was 81%. The “percent inhibition of Factor 11 at 20 μM” value with human Factor 11 mRNA [3] came to 89%.

“416973 (antisense eT*eT*dA*dT*dG*d[5mC]*d[5mC]*d[5mC]*dT*dT*d[5mC]*dA*dT*dG*dT*e[5mC]*eT*eA*eG*eG) [compound 416973]”: in the data set with human Factor 11 mRNA [1], the pIC50 is 8.52, the “percent inhibition of Factor 11 at 9.375 nM” value was determined as 60%, the “percent inhibition of Factor 11 at 18.75 nM” value was determined as 75% and the “percent inhibition of Factor 11 at 37.5 nM” value was 85%. For the same substance, the “percent inhibition of Factor 11 at 75 nM” value in the data set on human Factor 11 mRNA [1] amounted to 87%. In addition, the “% inhibition” value with human Factor 11 mRNA [2] (setting [4]) was 92%. In the data set with human Factor 11 mRNA [3], the pIC50 was 5.64, the “percent inhibition of Factor 11 at 0.7 μM” value stood at 20%, the “percent inhibition of Factor 11 at 2.2 μM” value is 48% and the “percent inhibition of Factor 11 at 6.7 μM” value came out at 86%. For the same substance, the “percent inhibition of Factor 11 at 20 μM” value with human Factor 11 mRNA [3] came to 93%.

For “416969 (antisense eG*e[5mC]*d[5mC]*d[5mC]*dT*dT*d[5mC]*dA*dT*dG*dT*d[5mC]*dT*dA*dG*eG*eT*e[5mC]*e[5mC]*eA) [compound 416969]”, in the data set with human Factor 11 mRNA [1], the pIC50 was 7.55, the “percent inhibition of Factor 11 at 9.375 nM” value came to 17%, the “percent inhibition of Factor 11 at 18.75 nM” value is 39% and the “percent inhibition of Factor 11 at 37.5 nM” value is listed as 61%. In addition, the “percent inhibition of Factor 11 at 75 nM” value in the data set with human Factor 11 mRNA [1] came to 76%. In the data set with human Factor 11 mRNA [2] (setting [4]), the “% inhibition” value was found to be 80%. Moreover, in the data set with human Factor 11 mRNA [3], the negative-log IC50 (pIC50) was 5.60, the “percent inhibition of Factor 11 at 0.7 μM” value is recorded as 25%, the “percent inhibition of Factor 11 at 2.2 μM” value was found to be 34% and the “percent inhibition of Factor 11 at 6.7 μM” value came to 86%. In addition, the “percent inhibition of Factor 11 at 20 μM” value in the data set on human Factor 11 mRNA [3] came to 92%.

As for “416941 (antisense eG*eG*e[5mC]*dA*dG*d[5mC]*dG*dG*dA*d[5mC]*dG*dG*d[5mC]*dA*dT*dT*dG*eG*eT*eG) [compound 416941]”, in the data set on human Factor 11 mRNA [1], the pIC50 is 7.72, the “percent inhibition of Factor 11 at 9.375 nM” value amounted to 33%, the “percent inhibition of Factor 11 at 18.75 nM” value came to 54% and the “percent inhibition of Factor 11 at 37.5 nM” value turned out to be 63%. Further, the “percent inhibition of Factor 11 at 75 nM” value in the data set with human Factor 11 mRNA [1] was 78%. In the data set with human Factor 11 mRNA [2] (HepG2 cells, lipofectin, gapmers targeted to nucleobases 1275 to 1318 of SEQ ID NO: 1), the “% inhibition” value is 95%. In the data set on human Factor 11 mRNA [3], the pIC50 is 5.52, the “percent inhibition of Factor 11 at 0.7 μM” value amounted to 16%, the “percent inhibition of Factor 11 at 2.2 μM” value stood at 38% and the “percent inhibition of Factor 11 at 6.7 μM” value came out at 79%. Further, the “percent inhibition of Factor 11 at 20 μM” value with human Factor 11 mRNA [3] was 89%.

Consider “416972 (antisense eT*eA*dT*dG*d[5mC]*d[5mC]*d[5mC]*dT*dT*d[5mC]*dA*dT*dG*dT*d[5mC]*eT*eA*eG*eG*eT) [compound 416972]”, for which, in the data set on human Factor 11 mRNA [1], the pIC50 is 7.59, the “percent inhibition of Factor 11 at 9.375 nM” value worked out at 32%, the “percent inhibition of Factor 11 at 18.75 nM” value was 40% and the “percent inhibition of Factor 11 at 37.5 nM” value came to 60%. Further, the “percent inhibition of Factor 11 at 75 nM” value in the data set on human Factor 11 mRNA [1] amounted to 69%. For the same substance, the “% inhibition” value in the data set with human Factor 11 mRNA [2] (setting [4]) was 90%. In the data set with human Factor 11 mRNA [3], the pIC50 is 5.37, the “percent inhibition of Factor 11 at 0.7 μM” value was 25%, the “percent inhibition of Factor 11 at 2.2 μM” value stood at 30% and the “percent inhibition of Factor 11 at 6.7 μM” value is listed as 48%. Besides, the “percent inhibition of Factor 11 at 20 μM” value in the data set with human Factor 11 mRNA [3] is 88%.

“416878 (antisense eG*eG*eT*d[5mC]*d[5mC]*dA*d[5mC]*dA*dT*dA*dA*dA*dT*dG*dT*d[5mC]*dT*eT*eT*eG) [compound 416878]”: in the data set on human Factor 11 mRNA [1], the pIC50 was 7.57, the “percent inhibition of Factor 11 at 9.375 nM” value is 22%, the “percent inhibition of Factor 11 at 18.75 nM” value was 34% and the “percent inhibition of Factor 11 at 37.5 nM” value is reported as 60%. In addition, the “percent inhibition of Factor 11 at 75 nM” value in the data set with human Factor 11 mRNA [1] turned out to be 82%. Also, in the data set with human Factor 11 mRNA [2] (setting [4]), the “% inhibition” value was found to be 95%. For the same substance, in the data set with human Factor 11 mRNA [3], the negative logarithm of the IC50 (pIC50) was 5.37, the “percent inhibition of Factor 11 at 0.7 μM” value is 1%, the “percent inhibition of Factor 11 at 2.2 μM” value worked out at 26% and the “percent inhibition of Factor 11 at 6.7 μM” value is given as 75%. Moreover, the “percent inhibition of Factor 11 at 20 μM” value in the data set on human Factor 11 mRNA [3] turned out to be 85%.

As to “416989 (antisense eG*eA*dG*dA*dT*dT*d[5mC]*dT*dT*dT*dG*dG*dG*d[5mC]*d[5mC]*eA*eT*eT*e[5mC]*e[5mC]) [compound 416989]”, in the data set with human Factor 11 mRNA [1], the pIC50 is 7.59, the “percent inhibition of Factor 11 at 9.375 nM” value is given as 18%, the “percent inhibition of Factor 11 at 18.75 nM” value amounted to 41% and the “percent inhibition of Factor 11 at 37.5 nM” value was 62%. The “percent inhibition of Factor 11 at 75 nM” value in the data set on human Factor 11 mRNA [1] is 83%. Also, the “% inhibition” value in the data set on human Factor 11 mRNA [2] (HepG2 cells, lipofectin, gapmers targeted to nucleobases 1062 to 1091 of SEQ ID NO: 1) was 88%. In addition, in the data set on human Factor 11 mRNA [3], the negative-log IC50 (pIC50) was 5.89, the “percent inhibition of Factor 11 at 0.7 μM” value was 32%, the “percent inhibition of Factor 11 at 2.2 μM” value is recorded as 65% and the “percent inhibition of Factor 11 at 6.7 μM” value is 88%. Moreover, the “percent inhibition of Factor 11 at 20 μM” value in the data set on human Factor 11 mRNA [3] is reported as 94%.

Turning to “416945 (antisense eA*eA*dT*dG*dT*d[5mC]*dT*dT*dT*dG*dT*dT*dG*d[5mC]*dA*eA*eG*e[5mC]*eG*e[5mC]) [compound 416945]”, in the data set with human Factor 11 mRNA [1], the pIC50 was 7.62, the “percent inhibition of Factor 11 at 9.375 nM” value was 34%, the “percent inhibition of Factor 11 at 18.75 nM” value stood at 45% and the “percent inhibition of Factor 11 at 37.5 nM” value came out at 62%. Moreover, the “percent inhibition of Factor 11 at 75 nM” value in the data set on human Factor 11 mRNA [1] was found to be 65%. For the same substance, the “% inhibition” value in the data set on human Factor 11 mRNA [2] (setting [4]) was 94%. Also, in the data set with human Factor 11 mRNA [3], the pIC50 is 6.22, the “percent inhibition of Factor 11 at 0.7 μM” value was determined as 48%, the “percent inhibition of Factor 11 at 2.2 μM” value was determined as 70% and the “percent inhibition of Factor 11 at 6.7 μM” value is listed as 81%. Besides, the “percent inhibition of Factor 11 at 20 μM” value in the data set with human Factor 11 mRNA [3] is 88%.

As for “416895 (antisense eT*eA*eT*dG*d[5mC]*d[5mC]*d[5mC]*dT*dT*d[5mC]*dA*dT*dG*dT*d[5mC]*dT*dA*eG*eG*eT) [compound 416895]”, in the data set on human Factor 11 mRNA [1], the pIC50 is 7.82, the “percent inhibition of Factor 11 at 9.375 nM” value is given as 39%, the “percent inhibition of Factor 11 at 18.75 nM” value is on record as 57% and the “percent inhibition of Factor 11 at 37.5 nM” value is given as 66%. In the data set on human Factor 11 mRNA [1], the “percent inhibition of Factor 11 at 75 nM” value is 71%. The “% inhibition” value with human Factor 11 mRNA [2] (setting [4]) was 95%. Also, in the data set with human Factor 11 mRNA [3], the pIC50 is 5.52, the “percent inhibition of Factor 11 at 0.7 μM” value is 0%, the “percent inhibition of Factor 11 at 2.2 μM” value is given as 62% and the “percent inhibition of Factor 11 at 6.7 μM” value came out at 70%. Besides, in the data set on human Factor 11 mRNA [3], the “percent inhibition of Factor 11 at 20 μM” value worked out at 91%.

(Values after patent US20230263822A1, “MODULATION OF FACTOR 11 EXPRESSION” (Ionis Pharmaceuticals, Inc., priority 2008, published 2023).)
